Test results from patent EP0517347A1, “New combinations for the treatment of Parkinsons disease, containing NMDA-antagonists” (SCHERING AKTIENGESELLSCHAFT, priority 1991, dated 1992).

Experiments:
[1] = system: unilateral Substantia nigralädierten Ratten; assay: Induction of contralateral rotations in rats with unilateral 6-OHDA lesion of the substantia nigra (automated rotometer); format: in vivo, Wistar-Ratten
Experimental: Die erfindungsgemäße Wirkung wird am Beispiel des CPP dargestellt: Auslösung von kontralateralen Rotationen an unilateral Substantia nigralädierten Ratten. Männliche Wistar-Ratten wurden 8 Monate vor dem Experiment durch Injektion von 16 µg 6-Hydroxydopamin (6-OHDA) in die linke Substantia nigra lädiert. Die Messung der Rotationen erfolgte in automatisierten Rotometern. Die Tiere wurden in Plexiglas-Halbschalen (Durchmesser 40 cm) gesetzt und mechanisch mit einem Winkelschrittgeber verbunden. Die Bewegungen mit und entgegen dem Uhrzeigersinn wurden getrennt in 10-Minuten-Intervallen für 2 Stunden erfasst.
Die Ergebnisse dieser Versuche lassen sich wie folgt zusammenfassen: Die mit Lösungsmitteln behandelten Tiere zeigen kaum spontane Rotationen.

[2] = system: MPTP-behandelten Pinselohräffchen; assay: Experimental Parkinson syndrome induced by the neurotoxin MPTP in marmosets; format: in vivo
Experimental: In gleicher Weise wurden die erfindungsgemäßen Verbindungen am Pinselohräffchen untersucht, bei denen durch das Neurotoxin MPTP ein experimentelles Parkinsonsyndrom erzeugt wurde.
Im gleichen Modell wurde CPP (0.1, 0.39, 1.56 mg/kg i.p.) mit den direkten Dopaminagonisten Apomorphin (0.05 mg/kg i.p. ) oder Lisurid (0.1 mg/kg i.p. ) geprüft (Abb. 3 und 4).

SMILES	durch L-Dopa induzierte Rotationen ([1]; CPP 0,025, 0,39, 1,56 and 6,25 mg/kg i.p. added to L-Dopa 25 mg/kg i.p. + Benserazid 100 mg/kg i.p., Abb. 1)	Zahl der Rotationen in 2 Stunden ([1]; highest dose of CPP (6,25 mg/kg i.p.) plus L-Dopa + Benserazid, compared with L-Dopa treatment, Abb. 1)	Wirkung von L-Dopa und Benserazid ([2]; CPP 0,1, 0,39, 1,56 mg/kg i.p. added to L-Dopa 20 mg/kg i.p. + Benserazid 20 mg/kg i.p., Abb. 2)	kombinierte Behandlung mit Apomorphin ([2]; CPP 0.1, 0.39, 1.56 mg/kg i.p. with Apomorphin 0.05 mg/kg i.p., analysis of variance and Tukey test, p < 0.0.1, Abb. 3 und 4)	kombinierte Behandlung mit Lisurid ([2]; CPP 0.1, 0.39, 1.56 mg/kg i.p. with Lisurid 0.1 mg/kg i.p., analysis of variance and Tukey test, p < 0.0.1, Abb. 3 und 4)	Rotationsbewegungen ([1]; L+Dopa 25 mg/kg i.p. and Benserazid 100 mg/kg i.p., without CPP, 6-OHDA-lesioned rats)
O=C(O)C1CN(CCCP(=O)(O)O)CCN1 (racemic) [CPP, 3-((±)-2-carboxy-piperazin-4-yl)-propyl-1-phosphonsäure]	dosisabhängig verstärkt	signifikant von der L-Dopa Behandlung verschieden	dosisabhängig verstärkt	signifikantem Synergismus	signifikantem Synergismus	
N[C@@H](Cc1ccc(O)c(O)c1)C(=O)O [L+Dopa]						leichte Rotationsbewegungen
